One experiment has as its target c-Kit(V654A) (Homo sapiens, UniProt P10721, V654A). Nature of the experiment: c-Kit(V654A) assay. The format is biochemical. As for the experimental part: c-Kit(V654A) (N-terminal GST-tagged, recombinant human c-Kit, amino acids 544-end containing the V654A mutation) is incubated with 8 mM MOPS pH 7.0, 0.2 mM EDTA, 250 μM GGMEDIYEFMGGKKK, 10 mM MgAcetate and [gamma-33P-ATP](specific activity approx. 500 cpm/pmol, concentration 200 μM). The reaction is initiated by the addition of the MgATP mix. After incubation for 40 minutes at room temperature, the reaction is stopped by the addition of 3% phosphoric acid solution. 10 μL of the reaction is then spotted onto a P30 filtermat and washed three times for 5 minutes in 75 mM phosphoric acid and once in methanol prior to drying and scintillation counting.

Experiment [1] concerns the target mutant cKIT (560-576 and V654A) in GIST430/654 cell line (Homo sapiens (Human), UniProt P10721, DEL560-576/V654A). As to the kind of experiment: Cellular testing of cKIT mutant inhibitors: phospho-Y307-cKIT Luminex assay in GIST430/654 cells. The following applies: read-out: GIST 430/654 IC50. The format is cell-based. The protocol: Assay Principle for Cellular Testing of cKIT Mutant Inhibitors
The GIST430/654 cell line expressing mutated constitutively active cKIT receptor tyrosine kinase ([…]560-576 and V654A) was employed for assessing cellular potency of compounds. Cellular activity of mutant cKIT was determined by the degree of cKIT autophosphorylation at tyrosine 307 using a Luminex-based bead assay. GIST430/654 cells were plated with 25,000 cells per well of a 96-well plate in 100 μl medium (85% IMDM/15% FCS supplemented with 100 nM Imatinib). At the following day compounds were added in a serial dilution for 45 min. Then, cells were lysed with 90 μl lysis buffer (20 mM Hepes pH 7.5, 200 mM NaCl, 1.5 mM MgCl2×6H2O, 0.4 mM EDTA, 1% Triton-X-100, 1% Phosphatase-Inhibitor II, 20 mM D-Glycerolphosphat, 0.1% Protease-Inhibitor Cocktail III, 0.01% Benzonase) und lysates were cleared by centrifugation through a 96-well filter plate (0.65 μm). Samples were incubated with Luminex-beads which were coupled with an anti-total cKIT antibody overnight at 4° C. under gentle agitation. For detection of phospho-Y307-cKIT a phosphospecific antibody and a species-specific PE-labelled secondary antibody were added. The amount of phospho-Y307-cKIT was determined in a Luminex 200 instrument measuring 100 events per well within 60 seconds.
Counts from samples treated with compounds were calculated as percent of control from solvent treated (0.3% DMSO) samples. Dose-response curves were fitted and IC50 values were determined using Genedata Screener software.

The mark [2] stands for this setting: Table 1, cKIT autophosphorylation, compounds 45 min.
Where [3] appears, read: Table 2, isoxazole derivatives presently described.
Where [4] appears, read: Table 2, corresponding triazole derivatives.

From patent US20260042753A1 (Merck Patent GmbH, priority 2019, published 2026) come the findings set out here.

Read-outs that look alike come from different tables or passages of the source.

Sequence of mutant cKIT (560-576 and V654A) in GIST430/654 cell line (P10721 other isoform, or with tags, fused parts or gaps V654A/del 1-25/del 560-576 limits assumed): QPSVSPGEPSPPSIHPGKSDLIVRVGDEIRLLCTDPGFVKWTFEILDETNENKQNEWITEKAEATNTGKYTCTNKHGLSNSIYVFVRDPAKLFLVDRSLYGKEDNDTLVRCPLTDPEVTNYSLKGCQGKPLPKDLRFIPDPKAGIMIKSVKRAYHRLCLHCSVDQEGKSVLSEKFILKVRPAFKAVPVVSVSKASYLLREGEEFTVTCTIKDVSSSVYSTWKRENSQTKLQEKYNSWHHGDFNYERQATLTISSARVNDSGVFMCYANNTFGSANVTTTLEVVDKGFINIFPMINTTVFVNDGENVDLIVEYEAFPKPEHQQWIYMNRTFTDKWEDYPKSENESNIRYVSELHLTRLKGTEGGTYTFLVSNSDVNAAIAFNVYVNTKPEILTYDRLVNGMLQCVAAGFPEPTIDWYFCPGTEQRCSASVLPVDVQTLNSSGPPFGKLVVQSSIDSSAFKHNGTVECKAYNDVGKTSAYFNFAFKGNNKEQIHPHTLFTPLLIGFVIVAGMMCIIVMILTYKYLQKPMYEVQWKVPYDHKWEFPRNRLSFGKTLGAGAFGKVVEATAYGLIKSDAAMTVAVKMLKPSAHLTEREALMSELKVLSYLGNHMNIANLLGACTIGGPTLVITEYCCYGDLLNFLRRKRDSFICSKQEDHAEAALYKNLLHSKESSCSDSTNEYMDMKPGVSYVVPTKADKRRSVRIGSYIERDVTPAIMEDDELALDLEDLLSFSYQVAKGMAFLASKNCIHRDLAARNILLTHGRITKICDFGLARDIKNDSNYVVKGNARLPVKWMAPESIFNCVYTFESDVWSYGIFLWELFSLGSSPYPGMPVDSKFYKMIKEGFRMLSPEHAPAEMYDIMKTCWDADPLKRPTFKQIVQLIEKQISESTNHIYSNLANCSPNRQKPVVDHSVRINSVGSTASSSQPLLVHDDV

Regarding `COCCOc1cc2[nH]nc(-c3cc(-c4ccc(C(=O)N5CC[C@H]6CNC(=O)[C@H]65)cc4)no3)c2cc1F` (relative stereo) [A89, (cis)-1-(4-{5-[5-fluoro-6-(2-methoxyethoxy)-1H-indazol-3-yl]-1,2-oxazol-3-yl}benzoyl)-octahydropyrrolo[3,4-b]pyrrol-6-one], the IC50 against c-Kit(V654A) (Table 1, 200 μM ATP) came to 0.57 nM; in experiment [1] (setting [2]), 320 nM. On to `COCCOc1cc2[nH]nc(-c3cc(-c4ccc(N5CC[C@@H]6[C@H]5CCCN6C)cc4)no3)c2cc1F` (relative stereo) [A124, 3-(3-{4-[(cis)-4-methyl-octahydro-1H-pyrrolo[3,2-b]pyridin-1-yl]phenyl}-1,2-oxazol-5-yl)-5-fluoro-6-(2-methoxyethoxy)-1H-indazole], for which the IC50 against c-Kit(V654A) (Table 1, 200 μM ATP) was determined as 0.35 nM; in experiment [1] (setting [2]), 85 nM. The matching figures for `COCCOc1cc2[nH]nc(-c3cc(-c4ccc(N5CC[C@H]6[C@@H]5CCN6C)cc4)no3)c2cc1F` (relative stereo) [A125, 3-(3-{4-[(cis)-4-methyl-octahydropyrrolo[3,2-b]pyrrol-1-yl]phenyl}-1,2-oxazol-5-yl)-5-fluoro-6-(2-methoxyethoxy)-1H-indazole]: 1.9 nM and 230 nM.

On to `COCCOc1cc2[nH]nc(-c3cc(-c4ccc(N5CC[C@@H]6[C@@H]5CCN6C)cc4)no3)c2cc1F` (relative stereo) [A126, 3-(3-{4-[(trans)-4-methyl-octahydropyrrolo[3,2-b]pyrrol-1-yl]phenyl}-1,2-oxazol-5-yl)-5-fluoro-6-(2-methoxyethoxy)-1H-indazole], for which the IC50 was 1.7 nM against c-Kit(V654A) (Table 1, 200 μM ATP) and 200 nM in experiment [1] (setting [2]). Consider `COCCOc1cc2[nH]nc(-c3cc(-c4ccc(C(=O)N5C[C@H]6CC(=O)N[C@H]6C5)cc4)no3)c2cc1F` (relative stereo) [A203, (cis)-5-(4-{5-[5-fluoro-6-(2-methoxyethoxy)-1H-indazol-3-yl]-1,2-oxazol-3-yl}benzoyl)-octahydropyrrolo[2,3-c]pyrrol-2-one], for which the IC50 at c-Kit(V654A) (Table 1, 200 μM ATP) came to 1.4 nM; in experiment [1] (setting [2]), 560 nM. Take `COCCOc1cc2[nH]nc(-c3cc(-c4ccc(C(=O)N5C[C@H]6COCC[C@H]6C5)cc4)no3)c2cc1F` (relative stereo) [A214, 3-(3-{4-[(cis)-octahydropyrano[3,4-c]pyrrole-2-carbonyl]phenyl}-1,2-oxazol-5-yl)-5-fluoro-6-(2-methoxyethoxy)-1H-indazole]: the IC50 against c-Kit(V654A) (Table 1, 200 μM ATP) was determined as 0.44 nM; in experiment [1] (setting [2]), 37 nM. In the case of `COCCOc1cc2[nH]nc(-c3cc(-c4ccc(C(=O)N5CC[C@@H]6COC[C@@H]6C5)cc4)no3)c2cc1F` (relative stereo) [A215, 3-(3-{4-[(cis)-octahydrofuro[3,4-c]pyridine-5-carbonyl]phenyl}-1,2-oxazol-5-yl)-5-fluoro-6-(2-methoxyethoxy)-1H-indazole], the IC50 at c-Kit(V654A) (Table 1, 200 μM ATP) was determined as 0.76 nM; in experiment [1] (setting [2]) it was 35 nM. For `CC(C)(O)C1CCCN1C(=O)c1ccc(-c2cc(-c3n[nH]c4cc(C(F)(F)F)ccc34)on2)cc1` (centres unmarked) [A1, 2-[1-(4-{5-[6-(trifluoromethyl)-1H-indazol-3-yl]-1,2-oxazol-3-yl}benzoyl)pyrrolidin-2-yl]propan-2-ol] the same measures were 15 nM and 350 nM. Turning to `COCCOc1ccc2c(-c3cc(-c4ccc(C(=O)N5CCC[C@@H]5C(C)(C)O)cc4)no3)n[nH]c2c1` [A2, 2-[(2R)-1-(4-{5-[6-(2-methoxyethoxy)-1H-indazol-3-yl]-1,2-oxazol-3-yl}benzoyl)pyrrolidin-2-yl]propan-2-ol], the IC50 was 4.8 nM at c-Kit(V654A) (Table 1, 200 μM ATP) and 250 nM in experiment [1] (setting [2]). Consider `COCCOc1cc2[nH]nc(-c3cc(-c4ccc(C(=O)N5CCN(C)C[C@@H]5C)cc4)no3)c2cc1F` [A3, 3-(3-{4-[(2S)-2,4-dimethylpiperazine-1-carbonyl]phenyl}-1,2-oxazol-5-yl)-5-fluoro-6-(2-methoxyethoxy)-1H-indazole], for which the IC50 at c-Kit(V654A) (Table 1, 200 μM ATP) is 1.4 nM; at c-Kit(V654A) (setting [3]), 1.4 nM; in experiment [1] (setting [2]), 38 nM; in experiment [1] (setting [3]) it was 38 nM. Consider `CC(C)(O)[C@@H]1CCCN1C(=O)c1ccc(-c2cc(-c3n[nH]c4cc(Br)ccc34)on2)cc1` [A4, {4-[5-(6-bromo-1H-indazol-3-yl)-isoxazol-3-yl]-phenyl}-[(S)-2-(1-hydroxy-1-methyl-ethyl)-pyrrolidin-1-yl]-methanone], for which the IC50 against c-Kit(V654A) (Table 1, 200 μM ATP) came out at 13 nM; in experiment [1] (setting [2]), 330 nM. As for `COCCOc1cc2[nH]nc(-c3cc(-c4ccc(C(=O)N5CCC[C@H]5C(C)(C)O)cc4)no3)c2cc1F` [A5, 2-[(2S)-1-(4-{5-[5-fluoro-6-(2-methoxyethoxy)-1H-indazol-3-yl]-1,2-oxazol-3-yl}benzoyl)pyrrolidin-2-yl]propan-2-ol], the IC50 was found to be 0.55 nM against c-Kit(V654A) (Table 1, 200 μM ATP) and 20 nM in experiment [1] (setting [2]). `COCCOc1cc2[nH]nc(-c3cc(-c4ccc(C(=O)N(C)C)cc4)no3)c2cc1C#N` [A6, 4-{5-[5-cyano-6-(2-methoxyethoxy)-1H-indazol-3-yl]-1,2-oxazol-3-yl}-N,N-dimethylbenzamide]: the IC50 at c-Kit(V654A) (Table 1, 200 μM ATP) was 4.1 nM; in experiment [1] (setting [2]) it was 150 nM. Regarding `COCCOc1cc2[nH]nc(-c3cc(-c4ccc(C(=O)N5CCC[C@H]5CS(C)(=O)=O)cc4)no3)c2cc1F` [A7, 5-fluoro-3-(3-{4-[(2S)-2-(methanesulfonylmethyl)pyrrolidine-1-carbonyl]phenyl}-1,2-oxazol-5-yl)-6-(2-methoxyethoxy)-1H-indazole], the IC50 against c-Kit(V654A) (Table 1, 200 μM ATP) came to 0.75 nM; in experiment [1] (setting [2]), 40 nM. With `Cn1cc(-c2ccc3c(-c4cc(-c5ccc(C(=O)N6CCC[C@@H]6C(C)(C)O)cc5)no4)n[nH]c3c2)cn1` [A8, 2-[(2R)-1-(4-{5-[6-(1-methyl-1H-pyrazol-4-yl)-1H-indazol-3-yl]-1,2-oxazol-3-yl}benzoyl)pyrrolidin-2-yl]propan-2-ol], the IC50 against c-Kit(V654A) (Table 1, 200 μM ATP) amounted to 20 nM; in experiment [1] (setting [2]) it was 280 nM. At c-Kit(V654A) (Table 1, 200 μM ATP), `COC(=O)c1ccc2c(-c3cc(-c4ccc(C(=O)N(C)C)cc4)no3)n[nH]c2c1` [A19, methyl 3-{3-[4-(dimethylcarbamoyl)phenyl]-1,2-oxazol-5-yl}-1H-indazole-6-carboxylate] came in with an IC50 of 8.2 nM. Turning to `CNC(=O)c1ccc2c(-c3cc(-c4ccc(C(=O)N(C)C)cc4)no3)n[nH]c2c1` [A24, 3-[3-(4-dimethylcarbamoyl-phenyl)-isoxazol-5-yl]-1H-indazole-6-carboxylic acid methylamide], at c-Kit(V654A) (Table 1, 200 μM ATP), the IC50 turned out to be 88 nM. Same read-out and setting: in the case of `COCCOc1cc2[nH]nc(-c3cc(-c4cncs4)no3)c2cc1F` [A48, 5-fluoro-6-(2-methoxyethoxy)-3-[3-(1,3-thiazol-5-yl)-1,2-oxazol-5-yl]-1H-indazole] it was 13 nM; in that of `COCCOc1cc2[nH]nc(-c3cc(-c4ncc(C(=O)N5CC(N6CCOCC6)C5)s4)no3)c2cc1F` [A83, 5-fluoro-6-(2-methoxyethoxy)-3-(3-{5-[3-(morpholin-4-yl)azetidine-1-carbonyl]-1,3-thiazol-2-yl}-1,2-oxazol-5-yl)-1H-indazole], 76 nM. Still for that read-out and setting: in the case of `COCCOc1cc2[nH]nc(-c3cc(-c4ncc(C(=O)N5CC(F)C5)s4)no3)c2cc1F` [A86, 5-fluoro-3-{3-[5-(3-fluoroazetidine-1-carbonyl)-1,3-thiazol-2-yl]-1,2-oxazol-5-yl}-6-(2-methoxyethoxy)-1H-indazole] it was 69 nM; in that of `COCCOc1cc2[nH]nc(-c3cc(-c4ccc(N5CCS(=O)(=O)CC5)cc4)no3)c2cc1F` [A122, 4-(4-{5-[5-fluoro-6-(2-methoxyethoxy)-1H-indazol-3-yl]-1,2-oxazol-3-yl}phenyl)-1lambda6-thiomorpholine-1,1-dione], 54 nM; in that of `COCCOc1cc2[nH]nc(-c3cc(-c4ccc(OC)nc4)no3)c2cc1F` [A130, 5-fluoro-6-(2-methoxy-ethoxy)-3-[3-(6-methoxy-pyridin-3-yl)-isoxazol-5-yl]-1H-indazole], 27 nM.

Turning to `COCCOc1cc2[nH]nc(-c3cn(-c4ccc(C(=O)N5CCOCC5)cc4)nn3)c2cc1F` [reference compound], the IC50 in experiment [1] (setting [4]) is 490 nM.

`COCCOc1cc2[nH]nc(-c3cn(-c4ccc(C(=O)N(C)C)cc4)nn3)c2cc1F` [reference compound]: the IC50 against c-Kit(V654A) (setting [4]) was 11 nM.
